These results are taken from PubChem BioAssay AID330 (DTP/NCI, 2004).

In this test the test system is P388 leukemia ip, CD2F1 mice, survival T/C. In words: NCI In Vivo Anticancer Drug Screen. Data for tumor model P388 Leukemia (intraperitoneal) in CD2F1 (CDF1) mice. The settings on record: endpoint: median survival time, higher = longer survival. In short, it runs like this:
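Mice carrying the transplanted tumor received test compound or vehicle. Survival was recorded in each group, and the value is the treated-group measurement divided by that of the vehicle-treated control group.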

Setting [1] is: dose: 50.0 mg/kg/injection, schedule: Q01DX005 (ip), vehicle: Klucel (hydroxypropylcellulose) (HPC).
Where [2] appears, read: dose: 100.0 mg/kg/injection, schedule: Q01DX005 (ip), vehicle: Klucel (hydroxypropylcellulose) (HPC).
[3] abbreviates: dose: 50.0 mg/kg/injection, schedule: Q01DX009 (ip), vehicle: saline with Tween-80.
The mark [4] stands for this setting: dose: 100.0 mg/kg/injection, schedule: Q01DX009 (ip), vehicle: saline with Tween-80.
The mark [5] stands for this setting: dose: 100.0 mg/kg/injection, schedule: Q04DX003 (ip), vehicle: saline with Tween-80.
The mark [6] stands for this setting: dose: 200.0 mg/kg/injection, schedule: Q04DX003 (ip), vehicle: saline with Tween-80.

Where “and” joins values, the source holds several entries; their conditions need not be identical. Identical values can stand only once. Toxic doses and inconclusive results are not listed.

For `O=C(O)[C@H](Cc1ccccc1)N1C(=O)c2ccccc2C1=O`, the T/C reads like this: (dose: 50.0 mg/kg/injection, schedule: Q01DX005 (ip), vehicle: DMSO) 105 % of control; under setting [1], 109 % of control; (dose: 100.0 mg/kg/injection, schedule: Q01DX005 (ip), vehicle: DMSO) 100 % of control; under setting [2], 105 % of control; (dose: 100.0 mg/kg/injection, schedule: Q01DX005 (ip), vehicle: saline with Tween-80) 99 % of control; (dose: 125.0 mg/kg/injection, schedule: Q01DX001 (ip), vehicle: saline with Tween-80) 102 % of control. The T/C is 100 % of control (dose: 200.0 mg/kg/injection, schedule: Q01DX005 (ip), vehicle: DMSO); 101 % of control (dose: 200.0 mg/kg/injection, schedule: Q01DX005 (ip), vehicle: Klucel (hydroxypropylcellulose) (HPC)); 107 % of control (dose: 200.0 mg/kg/injection, schedule: Q01DX005 (ip), vehicle: saline with Tween-80); 95 % of control (dose: 250.0 mg/kg/injection, schedule: Q01DX001 (ip), vehicle: saline with Tween-80); 100 % of control (dose: 400.0 mg/kg/injection, schedule: Q01DX005 (ip), vehicle: DMSO); 105 % of control (dose: 400.0 mg/kg/injection, schedule: Q01DX005 (ip), vehicle: saline with Tween-80). The T/C was 100 % of control and 105 % of control (dose: 500.0 mg/kg/injection, schedule: Q01DX001 (ip), vehicle: saline with Tween-80); 107 % of control (dose: 800.0 mg/kg/injection, schedule: Q01DX005 (ip), vehicle: DMSO).

`O=C(Nc1ccc(Cl)cc1)OCC12COCN1COC2`: the T/C runs as follows: under setting [3], 87 % of control; under setting [4], 95 % of control.

In the case of `CNC(C#N)C(O)c1ccccc1` (stereo not given), the T/C reads like this: (dose: 12.5 mg/kg/injection, schedule: Q01DX009 (ip), vehicle: saline) 92 % of control; (dose: 25.0 mg/kg/injection, schedule: Q01DX009 (ip), vehicle: saline) 92 % of control; (dose: 50.0 mg/kg/injection, schedule: Q01DX009 (ip), vehicle: saline) 93 % of control and 97 % of control.

With `[Ni+2].[S-]CC[S-]`, the T/C is 92 % of control under setting [5] and 108 % of control under setting [6].

For the compound `O=C1C=C(SCCCC(=O)N2CCOCC2)C(=O)c2ccccc21`, the T/C runs as follows: (dose: 6.25 mg/kg/injection, schedule: Q04DX003 (ip), vehicle: Klucel (hydroxypropylcellulose) (HPC)) 107 % of control; (dose: 12.5 mg/kg/injection, schedule: Q04DX003 (ip), vehicle: Klucel (hydroxypropylcellulose) (HPC)) 104 % of control.

With `O=C(CC1(O)C(=O)N(CN2CCCCC2)c2ccccc21)c1ccccc1` (stereo not given), the T/C runs as follows: under setting [3], 110 % of control; under setting [4], 97 % of control.

For the compound `Cc1ccc(S(=O)(=O)OI(O)c2ccccc2)cc1`, the T/C was 108 % of control (dose: 50.0 mg/kg/injection, schedule: Q01DX009 (ip), vehicle: water) and 104 % of control (dose: 100.0 mg/kg/injection, schedule: Q01DX009 (ip), vehicle: water).

Consider `O=S1(=O)CS/C(=N/C(=S)N(Cc2ccccc2)Cc2ccccc2)N1c1ccccc1`, for which the T/C is, setting by setting: (dose: 50.0 mg/kg/injection, schedule: Q04DX003 (ip), vehicle: saline with Tween-80) 89 % of control; under setting [5], 104 % of control; under setting [6], 111 % of control.

As for `CC1(C)CCSC(/C=C/c2ccccc2)=N1`, the T/C runs as follows: (dose: 100.0 mg/kg/injection, schedule: Q01DX009 (ip), vehicle: other) 109 % of control; (dose: 200.0 mg/kg/injection, schedule: Q01DX009 (ip), vehicle: other) 115 % of control; (dose: 400.0 mg/kg/injection, schedule: Q01DX009 (ip), vehicle: other) 108 % of control.

On to `Cc1ccc(NC(=O)Nc2nccs2)cc1`, for which the T/C is 101 % of control (dose: 12.5 mg/kg/injection, schedule: Q01DX009 (ip), vehicle: distilled water + Tween-80); 99 % of control (dose: 25.0 mg/kg/injection, schedule: Q01DX009 (ip), vehicle: distilled water + Tween-80); 90 % of control (dose: 50.0 mg/kg/injection, schedule: Q01DX009 (ip), vehicle: distilled water + Tween-80); 99 % of control (dose: 100.0 mg/kg/injection, schedule: Q01DX009 (ip), vehicle: distilled water + Tween-80); 105 % of control (dose: 200.0 mg/kg/injection, schedule: Q01DX009 (ip), vehicle: distilled water + Tween-80).

For the compound `CC(/C=C/C=C/C=C/C=C/C=C/C(O)=C1/C(=O)C(CCC(=O)O)N(C)C1=O)=C\C(C)C(OC1CC(O)C(O)C(C)O1)C(C)C` (stereo not given), the T/C is, setting by setting: (dose: 1.0 mg/kg/injection, schedule: Q01DX005 (ip), vehicle: water) 121 % of control; (dose: 2.0 mg/kg/injection, schedule: Q01DX005 (ip), vehicle: water) 165 % of control; (dose: 4.0 mg/kg/injection, schedule: Q01DX005 (ip), vehicle: water) 112 % of control and 115 % of control; (dose: 8.0 mg/kg/injection, schedule: Q01DX005 (ip), vehicle: water) 158 % of control and 163 % of control.

For `Cc1ncc(N)c(C(=O)O)n1`, the T/C was 98 % of control under setting [1] and 98 % of control under setting [2].

In the case of `COC1=C(O)C(=O)N(C)C(=O)C1`, the T/C is, setting by setting: (dose: 0.93 mg/kg/injection, schedule: Q01DX005 (ip), vehicle: saline) 104 % of control; (dose: 1.87 mg/kg/injection, schedule: Q01DX005 (ip), vehicle: saline) 101 % of control; (dose: 3.75 mg/kg/injection, schedule: Q01DX005 (ip), vehicle: Klucel (hydroxypropylcellulose) (HPC)) 110 % of control; (dose: 3.75 mg/kg/injection, schedule: Q01DX005 (ip), vehicle: saline) 104 % of control.

`COC(=O)C1(CC(=O)c2cccs2)NC(=S)NC(=O)C1C#N` (stereo not given): the T/C is 98 % of control (dose: 60.0 mg/kg/injection, schedule: Q01DX005 (ip), vehicle: saline); 100 % of control (dose: 120.0 mg/kg/injection, schedule: Q01DX005 (ip), vehicle: saline); 94 % of control (dose: 240.0 mg/kg/injection, schedule: Q01DX005 (ip), vehicle: saline).

For `O=[N+]([O-])c1cc([N+](=O)[O-])c(Cl)s1`, the T/C was 104 % of control (dose: 6.25 mg/kg/injection, schedule: Q01DX009 (ip), vehicle: saline with Tween-80) and 100 % of control (dose: 12.5 mg/kg/injection, schedule: Q01DX009 (ip), vehicle: saline with Tween-80).

Regarding `O=C(O)/C=C/C(=O)Nc1ccc(Cl)c(Cl)c1`, the T/C reads like this: (dose: 6.25 mg/kg/injection, schedule: Q01DX009 (ip), vehicle: Klucel (hydroxypropylcellulose) (HPC)) 105 % of control; (dose: 12.5 mg/kg/injection, schedule: Q01DX009 (ip), vehicle: Klucel (hydroxypropylcellulose) (HPC)) 115 % of control; (dose: 25.0 mg/kg/injection, schedule: Q01DX009 (ip), vehicle: Klucel (hydroxypropylcellulose) (HPC)) 105 % of control; (dose: 400.0 mg/kg/injection, schedule: Q01DX009 (ip), vehicle: Klucel (hydroxypropylcellulose) (HPC)) 109 % of control.

`O=NN(C(=O)NC1CCOCC1)C1CCOCC1`: the T/C (dose: 25.0 mg/kg/injection, schedule: Q01DX001 (ip), vehicle: distilled water + Tween-80) is 101 % of control; the T/C (dose: 50.0 mg/kg/injection, schedule: Q01DX001 (ip), vehicle: distilled water + Tween-80) is 101 % of control; the T/C (dose: 100.0 mg/kg/injection, schedule: Q01DX001 (ip), vehicle: distilled water + Tween-80) is 102 % of control; the T/C (dose: 200.0 mg/kg/injection, schedule: Q01DX001 (ip), vehicle: distilled water + Tween-80) is 105 % of control; the T/C (dose: 400.0 mg/kg/injection, schedule: Q01DX001 (ip), vehicle: distilled water + Tween-80) is 102 % of control.

With `CCOC(=O)Nc1ccc(C2SCCN2C(=O)Nc2ccc(Cl)cc2)cc1` (stereo not given), the T/C by setting is: (dose: 60.0 mg/kg/injection, schedule: Q01DX005 (ip), vehicle: saline with Tween-80) 100 % of control; (dose: 120.0 mg/kg/injection, schedule: Q01DX005 (ip), vehicle: saline with Tween-80) 91 % of control; (dose: 240.0 mg/kg/injection, schedule: Q01DX005 (ip), vehicle: saline with Tween-80) 91 % of control.
